Each structure is given as a SMILES string. Where two headings read alike, the source gives them in different places.

Here are results for 32 molecules from patent US9340549B2, “Oxazolidinone compounds and derivatives thereof” (priority 2012, dated 2016).

For this assay, the target named is 6×HIS-tankyrase 1 (1091-1325) (Homo sapiens (Human), UniProt O95271). The assay is described as follows: biochemical. It is filed as biochemical. The note with it: 400 nM NAD, 60 minutes at room temperature, read-out: TNKS1 IP IC50.
Chain of 6×HIS-tankyrase 1 (1091-1325) (O95271 1091-1325): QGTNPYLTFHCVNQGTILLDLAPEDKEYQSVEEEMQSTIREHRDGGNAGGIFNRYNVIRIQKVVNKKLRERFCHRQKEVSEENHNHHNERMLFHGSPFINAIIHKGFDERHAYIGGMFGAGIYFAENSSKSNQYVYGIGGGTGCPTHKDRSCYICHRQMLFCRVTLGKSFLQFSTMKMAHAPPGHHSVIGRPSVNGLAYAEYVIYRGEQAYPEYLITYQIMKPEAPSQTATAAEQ

As for `CC1(C)OC(=O)N(C2CC(c3nnc(-c4ccccc4)o3)C2)[C@@H]1c1ccccc1` (mixture of isomers) [Example 175, Mixture of (R)-5,5-dimethyl-4-phenyl-3-((1r,3R)-3-(5-phenyl-1,3,4-oxadiazol-2-yl)cyclobutyl)oxazolidin-2-one compound and (S)-5,5-dimethyl-4-phenyl-3-((1r,3S)-3-(5-phenyl-1,3,4-oxadiazol-2-yl)cyclobutyl)oxazolidin-2-one (1:1)], for the setting “[…] enzyme”, the half-maximal inhibitory concentration (IC50) worked out at 1470 nM.
Regarding `CC1(C)OC(=O)N([C@H]2C[C@H](c3nnc(-c4ccccc4)o3)C2)[C@@H]1c1ccccc1` (single isomer, unassigned) [Example 176], where the note is “0.25 nM enzyme”, the IC50 amounted to 3130 nM.
Still for that read-out and setting: the result for `CC1(C)OC(=O)N([C@H]2C[C@H](c3nnc(-c4ccccc4)o3)C2)[C@H]1c1ccccc1` (single isomer, unassigned) [Example 177] reads 1020 nM.
In the case of `CC1(C)OC(=O)N(c2ccc(C(=O)Nc3cnccc3O)cc2)[C@H]1c1ccccc1` [Example 21, (S)-4-(5,5-dimethyl-2-oxo-4-phenyloxazolidin-3-yl)-N-(4-hydroxypyridin-3-yl)benzamide], the IC50 ([…] enzyme) turned out to be 1340 nM.
On the same count and under the same terms, the result for `CC1(C)OC(=O)N(C2CC=C(c3cc4ccncc4[nH]c3=O)CC2)[C@H]1c1ccccc1` (stereo partly drawn) [Example 87, (4S)-5,5-dimethyl-3-(4-(2-oxo-1,2-dihydro-1,7-naphthyridin-3-yl)cyclohex-3-en-1-yl)-4-phenyloxazolidin-2-one] reads 6.91 nM.
In the case of `CC1(C)OC(=O)N([C@H]2CC[C@H](c3cccnc3)CC2)[C@H]1c1ccccc1` [Example 133, (S)-5,5-dimethyl-4-phenyl-3-((1r,4s)-4-(pyridin-3-yl)cyclohexyl)oxazolidin-2-one], the IC50 (0.25 nM enzyme) was determined as 1380 nM.
The same measure, in the same setting: the value for `Cc1ccc([C@H]2CC[C@@H](N3C(=O)OC(C)(C)[C@@H]3c3ccccc3)CC2)cn1` [Example 134, (S)-5,5-dimethyl-3-((1 s,4r)-4-(6-methylpyridin-3-yl)cyclohexyl)-4-phenyloxazolidin-2-one] was more than 46300 nM.
With `Cc1ccc([C@H]2CC[C@H](N3C(=O)OC(C)(C)[C@@H]3c3ccccc3)CC2)cn1` [Example 135, (S)-5,5-dimethyl-3-((1r,4s)-4-(6-methylpyridin-3-yl)cyclohexyl)-4-phenyloxazolidin-2-one], the IC50 (0.25 nM enzyme) is 1380 nM.
Still for that read-out and setting: the result for `CC1(C)OC(=O)N([C@H]2CC[C@@H](c3cnc4[nH]ccc4c3)CC2)[C@H]1c1ccccc1` [Example 136, (S)-3-((1s,4r)-4-(1H-pyrrolo[2,3-b]pyridin-5-yl)cyclohexyl)-5,5-dimethyl-4-phenyloxazolidin-2-one] reads 5.17 nM; that for `CC1(C)OC(=O)N([C@H]2CC[C@H](c3cnc4[nH]ccc4c3)CC2)[C@H]1c1ccccc1` [Example 137, (S)-3-((1r,4s)-4-(1H-pyrrolo[2,3-b]pyridin-5-yl)cyclohexyl)-5,5-dimethyl-4-phenyloxazolidin-2-one], 218 nM; that for `CC1(C)OC(=O)N([C@H]2CC[C@@H](c3cc4ccncc4[nH]c3=O)CC2)[C@H]1c1ccccc1` [Example 138, (S)-5,5-dimethyl-3-((1s,4r)-4-(2-oxo-1,2-dihydro-1,7-naphthyridin-3-yl)cyclohexyl)-4-phenyloxazolidin-2-one], 1250 nM.
For `CC1(C)OC(=O)N([C@H]2CC[C@H](c3cc4ccncc4[nH]c3=O)CC2)[C@H]1c1ccccc1` [Example 139, (S)-5,5-dimethyl-3-((1r,4s)-4-(2-oxo-1,2-dihydro-1,7-naphthyridin-3-yl)cyclohexyl)-4-phenyloxazolidin-2-one], where the note is “0.25 nM enzyme”, the half-maximal inhibitory concentration (IC50) turned out to be 11.5 nM.
`CC1(C)OC(=O)N([C@H]2CC[C@H](NC(=O)c3ccccc3)CC2)[C@H]1c1ccccc1` [Example 141, N-((1S,4r)-4-((S)-5,5-dimethyl-2-oxo-4-phenyloxazolidin-3-yl)cyclohexyl)benzamide]: the IC50 ([…] enzyme) is 755 nM.
On the same count and under the same terms, the value for `CC1(C)OC(=O)N([C@H]2CC[C@H](NC(=O)c3ccncc3)CC2)[C@H]1c1ccccc1` [Example 142, N-((1S,4r)-4-((S)-5,5-dimethyl-2-oxo-4-phenyloxazolidin-3-yl)cyclohexyl)isonicotinamide] was 205 nM; that for `Cn1cc(C(=O)N[C@H]2CC[C@H](N3C(=O)OC(C)(C)[C@@H]3c3ccccc3)CC2)c2ccccc21` [Example 143, N-((1R,4r)-4-((R)-5,5-dimethyl-2-oxo-4-phenyloxazolidin-3-yl)cyclohexyl)-1-methyl-1H-indole-3-carboxamide] was 225 nM.
Still for that read-out and setting: the value for `Cn1cc2c(C(=O)N[C@H]3CC[C@H](N4C(=O)OC(C)(C)[C@H]4c4ccccc4)CC3)cccc2n1` [Example 144, N-((1R,4r)-4-((R)-5,5-dimethyl-2-oxo-4-phenyloxazolidin-3-yl)cyclohexyl)-2-methyl-2H-indazole-4-carboxamide] was 222 nM; that for `Cn1cc2cccc(C(=O)N[C@H]3CC[C@H](N4C(=O)OC(C)(C)[C@@H]4c4ccccc4)CC3)c2n1` [Example 145, N-((1S,4r)-4-((S)-5,5-dimethyl-2-oxo-4-phenyloxazolidin-3-yl)cyclohexyl)-2-methyl-2H-indazole-7-carboxamide] was 13.7 nM.
As to `CC1(C)OC(=O)N([C@H]2CC[C@H](NC(=O)c3cnn4cccnc34)CC2)[C@H]1c1ccccc1` [Example 146, N-((1S,4r)-4-((S)-5,5-dimethyl-2-oxo-4-phenyloxazolidin-3-yl)cyclohexyl)pyrazolo[1,5-a]pyrimidine-3-carboxamide], where the note is “[…] enzyme”, the IC50 was 9.18 nM.
The same measure, in the same setting: the value for `CC1(C)OC(=O)N([C@H]2CC[C@H](NC(=O)c3ccc4cc[nH]c4n3)CC2)[C@H]1c1ccccc1` [Example 147, N-((1S,4r)-4-((S)-5,5-dimethyl-2-oxo-4-phenyloxazolidin-3-yl)cyclohexyl)-1H-pyrrolo[2,3-b]pyridine-6-carboxamide] was 26.4 nM; that for `CC1(C)OC(=O)N([C@H]2CC[C@H](NC(=O)c3cc4ccncc4[nH]3)CC2)[C@H]1c1ccccc1` [Example 149, N-((1S,4r)-4-((S)-5,5-dimethyl-2-oxo-4-phenyloxazolidin-3-yl)cyclohexyl)-1H-pyrrolo[2,3-c]pyridine-2-carboxamide] was 34 nM.
Still for that read-out and setting: the result for `CC1(C)OC(=O)N([C@H]2CC[C@H](NC(=O)c3ccc4scnc4c3)CC2)[C@H]1c1ccccc1` [Example 150, N-((1S,4r)-4-((S)-5,5-dimethyl-2-oxo-4-phenyloxazolidin-3-yl)cyclohexyl)benzo[d]thiazole-5-carboxamide] reads 1540 nM; that for `Cn1cncc1C(=O)N[C@H]1CC[C@H](N2C(=O)OC(C)(C)[C@@H]2c2ccccc2)CC1` [Example 151, N-((1S,4r)-4-((S)-5,5-dimethyl-2-oxo-4-phenyloxazolidin-3-yl)cyclohexyl)-1-methyl-1H-imidazole-5-carboxamide], 16600 nM; that for `CC1(C)OC(=O)N([C@H]2CC[C@H](NC(=O)c3ccnc4[nH]ccc34)CC2)[C@H]1c1ccccc1` [Example 152, N-((1S,4r)-4-((S)-5,5-dimethyl-2-oxo-4-phenyloxazolidin-3-yl)cyclohexyl)-1H-pyrrolo[2,3-b]pyridine-4-carboxamide], 228 nM.
Same read-out and setting: the result for `CC1(C)OC(=O)N([C@H]2CC[C@H](NC(=O)c3cccc4[nH]ncc34)CC2)[C@H]1c1ccccc1` [Example 153, N-((1S,4r)-4-((S)-5,5-dimethyl-2-oxo-4-phenyloxazolidin-3-yl)cyclohexyl)-1H-indazole-4-carboxamide] reads 848 nM; that for `CC(C)c1cc(C(=O)N[C@H]2CC[C@H](N3C(=O)OC(C)(C)[C@@H]3c3ccccc3)CC2)[nH]n1` [Example 154, N-((1S,4r)-4-((S)-5,5-dimethyl-2-oxo-4-phenyloxazolidin-3-yl)cyclohexyl)-3-isopropyl-1H-pyrazole-5-carboxamide], 2320 nM; that for `CC1(C)OC(=O)N([C@H]2CC[C@H](NC(=O)c3cnc4ccccc4c3)CC2)[C@@H]1c1ccccc1` [Example 155, N-((1R,4r)-4-((R)-5,5-dimethyl-2-oxo-4-phenyloxazolidin-3-yl)cyclohexyl)quinoline-3-carboxamide], 548 nM.
`CC1(C)OC(=O)N([C@H]2CC[C@H](NC(=O)c3nc4ccccc4[nH]3)CC2)[C@H]1c1ccccc1` [Example 157, N-((1S,4r)-4-((S)-5,5-dimethyl-2-oxo-4-phenyloxazolidin-3-yl)cyclohexyl)-1H-benzo[d]imidazole-2-carboxamide]: the IC50 ([…] enzyme) was found to be 76.8 nM.
Consider `CC1(C)OC(=O)N([C@H]2CC[C@H](NC(=O)c3ccc[nH]3)CC2)[C@H]1c1ccccc1` [Example 158, N-((1S,4r)-4-((S)-5,5-dimethyl-2-oxo-4-phenyloxazolidin-3-yl)cyclohexyl)-1H-pyrrole-2-carboxamide], for which the IC50 ([…] enzyme) is 142 nM.
Regarding `CC1(C)OC(=O)N([C@H]2CC[C@H](NC(=O)c3ccc4nccn4c3)CC2)[C@H]1c1ccccc1` [Example 159, N-((1S,4r)-4-((S)-5,5-dimethyl-2-oxo-4-phenyloxazolidin-3-yl)cyclohexyl)imidazo[1,2-a]pyridine-6-carboxamide], for the setting “[…] enzyme”, the IC50 was 1560 nM.
Still for that read-out and setting: the value for `CC1(C)OC(=O)N([C@H]2CC[C@H](NC(=O)c3nccs3)CC2)[C@H]1c1ccccc1` [Example 160, N-((1S,4r)-4-((S)-5,5-dimethyl-2-oxo-4-phenyloxazolidin-3-yl)cyclohexyl)thiazole-2-carboxamide] was 1460 nM.
Same read-out and setting: the result for `CC1(C)OC(=O)N([C@H]2CC[C@H](NC(=O)c3cnn(-c4ccccc4)c3)CC2)[C@H]1c1ccccc1` [Example 161, N-((1S,4r)-4-((S)-5,5-dimethyl-2-oxo-4-phenyloxazolidin-3-yl)cyclohexyl)-1-phenyl-1H-pyrazole-4-carboxamide] reads 350 nM.
Still for that read-out and setting: the value for `CC1(C)OC(=O)N([C@H]2CC[C@H](NC(=O)c3cn4ccccc4n3)CC2)[C@@H]1c1ccccc1` [Example 162, N-((1R,4r)-4-((R)-5,5-dimethyl-2-oxo-4-phenyloxazolidin-3-yl)cyclohexyl)imidazo[1,2-a]pyridine-2-carboxamide] was 101 nM.

One may read the IC50 as the concentration needed to halve the response being measured.
